“And” between values parts separate entries of the source, which are not always exact repeats. Identical values can stand only once.
Assays:
HTLA cells = assay: PRESTO-Tango β-arrestin recruitment assay, parental HTLA cells without MRGPRX4 (control, fig. S1); assay type: cell-based
Source text: Supplement NIHMS2038790-supplement-table.xlsx, sheet "fig. S1" | column: Concentration (M)

MRGPRX4 W158A = biological target: T1, MRGPRX4 W158A (Homo sapiens, UniProt Q96LA9, L83S/W158A); assay: Calcium mobilization assay (FLIPR), MRGPRX4 W158A mutant; assay type: cell-based
T1 construct: expressed in transfected cells; host or cells: HEK293T, transient
Source text: (§1) Fig. 3. […] (A) Cryo-EM density map of MRGPRX4-Gq in complex with fospropofol. (B) The density map of fospropofol and R82 of MRGPRX4. (C and D) Key molecular interactions between fospropofol and the hydrophilic (C) and hydrophobic (D) part of the agonist binding pocket of MRGPRX4. Amino acid residues interacting with fospropofol are shown as sticks. Hydrogen bond is shown as cyan dashed lines. […] Data are from at least three independent experiments, each performed in triplicate, and reported as the mean ± SEM. (E) and (F) were collected from the same sets of experiments.
(§2) To generate murine Mrgprs expressing cells, HEK293T cells (ATCC) were seeded on poly-D-lysine coated 96 well plate at 25,000 cells per well one day prior to transfection. HEK293T cells were transiently co-transfected with the mammalian expression plasmids carrying cDNA encoding the murine Mrgpr genes and plasmid inserted with cDNA encoding murine α-subunit of the heterotrimeric G15 protein (Gα15) in triplicates using Lipofectamine LTX reagents (Thermo Scientific). To generate WT, S83L, and alanine mutant MRGPRX4-expressing cells, HEK293T cells were seeded on poly-D-lysine coated 384 well plate at 12,000 cells per well one day prior to transfection. Mammalian expression plasmids pLX304 (vector from Addgene) carrying different MRGPRX4 coding sequences were transiently transfected into HEK293T cells in triplicates with Lipofectamine LTX reagents (Thermo Scientific). Intracellular calcium mobilization assays were performed after one day of transfection. Murine Mrgprs tested include Mrgpra1, Mrgpra2a, Mrgpra2b, Mrgpra3, Mrgpra4, Mrgpra6, Mrgpra9, Mrgpra10, Mrgpra11, Mrgpra12, Mrgpra14, Mrgprb5, Mrgprb6, Mrgprb10, Mrgprb11, and Mrgprc11. WT and mutant MRGPRX4 constructs tested include WT, S83L, R82A, R86A, R95A, W158A, Y250A, and Y254A.
To generate MRGPRX4 mutant constructs, site-directed mutagenesis was performed using Q5® Site-Directed Mutagenesis Kit (New England Biolabs). The primers were designed by the NEBaseChanger tool, with forward primers spanning designated mutated sequence corresponding to the desired amino acid substitutions. The plasmids with WT MRGPRX4 sequence served as the templates for polymerase chain reaction (PCR) amplification with Q5 high-fidelity polymerase and respective primer pairs according to the manufacturer’s conditions. Then, the linear PCR products underwent phosphorylation, ligation, and simultaneous degradation of template DNA by incubating them with a KLD enzyme mix consisting of T4 polynucleotide kinase, T4 DNA ligase, and DpnI at room temperature for 5 min. Subsequently, the mutated circular plasmids were transformed into NEB 5-alpha competent E. coli by heat-shock method, and the successfully transformed bacteria were selected on LB plates with selection antibiotics. The next day, the transformant colonies were picked, expanded in LB broth containing selection antibiotics overnight. Plasmids were isolated using QIAprep Spin Miniprep Kit (Qiagen) and subjected to sequencing to confirm the mutation.

MRGPRX4 R86A = biological target: T2, MRGPRX4 R86A (Homo sapiens, UniProt Q96LA9, L83S/R86A); assay: Calcium mobilization assay (FLIPR), MRGPRX4 R86A mutant; assay type: cell-based
T2 construct: expressed in transfected cells; host or cells: HEK293T, transient
Source text: as §1
(§3) To generate murine Mrgprs expressing cells, HEK293T cells (ATCC) were seeded on poly-D-lysine coated 96 well plate at 25,000 cells per well one day prior to transfection. HEK293T cells were transiently co-transfected with the mammalian expression plasmids carrying cDNA encoding the murine Mrgpr genes and plasmid inserted with cDNA encoding murine α-subunit of the heterotrimeric G15 protein (Gα15) in triplicates using Lipofectamine LTX reagents (Thermo Scientific). To generate WT, S83L, and alanine mutant MRGPRX4-expressing cells, HEK293T cells were seeded on poly-D-lysine coated 384 well plate at 12,000 cells per well one day prior to transfection. […]

MRGPRX4 S83L (L83) = MRGPRX4 S83L (L83) (Homo sapiens, UniProt Q96LA9); assay: Calcium mobilization assay (FLIPR), S83L MRGPRX4 transiently expressed in HEK293T cells; assay type: cell-based; design: expressed in transfected cells; host or cells: HEK293T, transient; conditions: for Calcium mobilization response (Fig. 4D dose-response): each cell one replicate
Source text: Fig. 4. […] Hydrogen bond is shown as cyan dashed lines. […] Data are from three independent experiments, performed in triplicate. (E) pEC50 plots of various agonists toward S83- and L83-MRGPRX4 through calcium mobilization assay. […] Each data point represents an independent experiment, performed in triplicate. The extra sum-of-square F test was used to examine the difference in EC50 values. One-sided t-test was used for nateglinide. *p< 0.05, **p< 0.01 and ***p< 0.001. ns = no statistical significance. Both (D) and (E) are reported as the mean ± SEM. N.D.= no detectable response ≤ 100 μM.
HEK293 cells and MRGPRX4 stably expressed HEK293 cells were seeded in 100 μl culture media on 96-well plates at a density of 40,000 cells per well and incubated overnight. The next day, the media were replaced with a dye-loading solution from the FLIPR Calcium 5 assay kit (Molecular Devices), diluted in Hank's Balanced Salt Solution (HBSS) with 20 mM HEPES, pH 7.4. After 1 h of incubation at 37°C, cells were allowed to recover for 10 min in the dark at room temperature prior to performing intracellular calcium mobilization assay in a Flexstation-3 instrument with SoftMax®Pro 7.1 software (Molecular Devices). Serial concentrations of tested drugs were prepared in HBSS/HEPES solution at 3X concentration. […] Compounds were tested in triplicates and the signals were averaged. Responses were determined by subtracting the minimum signal (at the baseline before adding the drug) from the maximum signal (obtained after drug stimulation). Four-parameter logistic (4PL) curve fit was used to plot the dose-response curves. […] Both dose-response curve fitting and EC50s calculation are computed with GraphPad Prism software (version: 6.o or above).
as §2

MRGPRX4 R82A = biological target: T3, MRGPRX4 R82A (Homo sapiens, UniProt Q96LA9, L83S/R82A); assay: Calcium mobilization assay (FLIPR), MRGPRX4 R82A mutant; assay type: cell-based
T3 construct: expressed in transfected cells; host or cells: HEK293T, transient
Source text: as §1, §3

WT mice = assay: Itch behavioral study in WT mice across concentrations (fig. S4)
Description: Experimenters and subjects scoring the recorded videos were both blind to the mouse genotype and tested compounds. Behavioral tests comparing NP2-WT and NP2-X4+ scratching behavior were 6–12weeks old littermates including both genders. In brief, on the day preceding the experiment, animals were acclimated to the test chamber for at least 30 min and the experimenters performed mock injections 1–2 times in between. On the day of experiments, animals were habituated in test chambers for 10 min before receiving subcutaneous injection of 50ul compounds. Videos were recorded for 30 min after the injection. A bout of scratching was defined as a sustained scratching movement initiated by hindpaws toward the injection site (until the pause of the movement / withdrawal of the hindpaw). Scratching bouts were quantified within the 30 min record sessions.

Sequence of MRGPRX4 S83L (L83) (Q96LA9 whole entry, stated change not applied): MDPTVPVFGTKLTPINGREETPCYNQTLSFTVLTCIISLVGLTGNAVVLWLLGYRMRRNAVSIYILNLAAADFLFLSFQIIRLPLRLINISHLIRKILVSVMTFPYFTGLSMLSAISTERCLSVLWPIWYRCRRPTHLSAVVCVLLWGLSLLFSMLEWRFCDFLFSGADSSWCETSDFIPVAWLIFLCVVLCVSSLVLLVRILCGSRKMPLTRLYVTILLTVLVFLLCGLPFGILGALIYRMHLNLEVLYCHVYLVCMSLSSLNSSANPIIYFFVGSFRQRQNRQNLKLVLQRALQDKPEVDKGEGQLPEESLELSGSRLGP
T2 sequence (Q96LA9 whole entry L83S/R86A): as the sequence (Q96LA9 whole entry, stated change not applied) above, with L83S, R86A counted along it
T3 sequence (Q96LA9 whole entry R82A/L83S): as the sequence (Q96LA9 whole entry, stated change not applied) above, with R82A, L83S counted along it
T1 sequence (Q96LA9 whole entry L83S/W158A): as the sequence (Q96LA9 whole entry, stated change not applied) above, with L83S, W158A counted along it

SMILES: O=C1NC(=O)C(c2ccccc2)(c2ccccc2)N1 [Phenytoin]
- PRESTO-Tango response (fig. S1), single replicate (HTLA cells; concentration 4.88281e-6 M): 0.008545 and 0.005867 and 0.007953 and 0.006901 and 0.004547 and 0.009824
- PRESTO-Tango response (fig. S1), single replicate (HTLA cells; concentration 9.76563e-6 M): 0.00741 and 0.01006 and 0.006055 and 0.01246 and 0.001908 and 0.0161
- PRESTO-Tango response (fig. S1), single replicate (HTLA cells; concentration 1.95313e-5 M): 0.004145 and 0.01453 and 0.008851 and 0.01106 and 0.007187 and 0.01768
- PRESTO-Tango response (fig. S1), single replicate (HTLA cells; concentration 3.90625e-5 M): 0.005318 and 0.007104 and 0.005862 and 0.009351 and 0.00878 and 0.001453
- PRESTO-Tango response (fig. S1), single replicate (HTLA cells; concentration 7.8125e-5 M): 0.01242 and 0.005662 and 0.007299 and 0.009043 and 0.01323 and 0.004261
- PRESTO-Tango response (fig. S1), single replicate (HTLA cells; concentration 0.0003125 M): 0.006045 and 0.003571 and 0.004631 and 0.006824 and 0.00263 and 0.004138
- PRESTO-Tango response (fig. S1), single replicate (HTLA cells; concentration 0.000625 M): 0.006823 and 0.004668 and 0.00481 and 0.009762 and 0.00692 and 0.01249
- PRESTO-Tango response (fig. S1), single replicate (HTLA cells; concentration 0.0025 M): 0.006747 and 0.00542 and 0.005105 and 0.007273 and 0.002426 and 0.006102
- PRESTO-Tango response (fig. S1), single replicate (HTLA cells; concentration 0.005 M): 0.003966 and 0.00315 and 0.01104 and 0.009531 and 0.005922 and 0.01091

SMILES: CC(C)c1cccc(C(C)C)c1OCOP(=O)(O)O [Fospropofol]
- Calcium mobilization response at alanine mutant W158A vs WT (MRGPRX4 W158A): disrupted calcium mobilization
- Calcium mobilization response at alanine mutant R86A vs WT (MRGPRX4 R86A): either greatly attenuated or abolished
- Calcium mobilization response (Fig. 4D dose-response) (MRGPRX4 S83L (L83); 1.52e-8 M): 30.9484
- Calcium mobilization response (Fig. 4D dose-response) (MRGPRX4 S83L (L83); 0.0001 M): 92.0965
- EC50 (MRGPRX4 S83L (L83); EC50s (each well represents individual experiment), Fig. 4E, unit not in the head, taken from Concentration (M) of the sheet and pEC50 [M] of Fig. 4E): 1.79e-07 M and 1.3e-07 M and 1.88e-07 M
- PRESTO-Tango response (fig. S1), single replicate (HTLA cells; concentration 1.95e-8 M): 0.00694 and 0.004644 and 0.006153 and 0.00965 and 0.002832 and 0.003328 and 0.008458 and 0.007173 and 0.001142
- PRESTO-Tango response (fig. S1), single replicate (HTLA cells; concentration 3.91e-8 M): 0.00458 and 0.005779 and 0.004441 and 0.006153 and 0.01503 and 0.00701 and 0.000445 and 0.01011 and 0.01094
- PRESTO-Tango response (fig. S1), single replicate (HTLA cells; concentration 7.81e-8 M): 0.003343 and 0.006009 and 0.009902 and 0.005737 and 0.003469 and 0.004602 and 0.006927 and 0.00283 and 0.006775
- PRESTO-Tango response (fig. S1), single replicate (HTLA cells; concentration 1.56e-7 M): 0.003508 and 0.005703 and 0.009009 and 0.008984 and 0.006514 and 0.007694 and 0.009731 and 0.002935 and 0.00804
- PRESTO-Tango response (fig. S1), single replicate (HTLA cells; concentration 3.13e-7 M): 0.002922 and 0.004925 and 0.007537 and 0.0115 and 0.004508 and 0.006726 and 0.004052 and 0.005477 and 0.00953
- PRESTO-Tango response (fig. S1), single replicate (HTLA cells; concentration 6.25e-7 M): 0.004976 and 0.01037 and 0.009311 and 0.01735 and 0.01013 and 0.008402 and 0.01193 and 0.01132 and 0.007015
- PRESTO-Tango response (fig. S1), single replicate (HTLA cells; concentration 1.25e-6 M): 0.005116 and 0.008433 and 0.01261 and 0.0248 and 0.006302 and 0.01317 and 0.01357 and 0.000979 and 0.02066
- PRESTO-Tango response (fig. S1), single replicate (HTLA cells; concentration 2.5e-6 M): 0.004708 and 0.01187 and 0.01433 and 0.0357 and 0.005924 and 0.01747 and 0.01767 and 0.01738 and 0.009944
- PRESTO-Tango response (fig. S1), single replicate (HTLA cells; concentration 5e-6 M): 0.006149 and 0.02356 and 0.0209 and 0.04204 and 0.009157 and 0.0186 and 0.01895 and 0.003902 and 0.03736
- PRESTO-Tango response (fig. S1), single replicate (HTLA cells; concentration 1e-5 M): 0.007859 and 0.01771 and 0.01368 and 0.04592 and 0.005971 and 0.02299 and 0.000906 and 0.03405 and 0.02211
- PRESTO-Tango response (fig. S1), single replicate (HTLA cells; concentration 2e-5 M): 0.005575 and 0.02041 and 0.01412 and 0.04838 and 0.01541 and 0.027 and 0.00299 and 0.03805 and 0.0244
- Calcium mobilization response at alanine mutant R82A vs WT (MRGPRX4 R82A): either greatly attenuated or abolished
- Scratching bouts (each well represents individual mouse) (WT mice; 1 mM subcutaneous nape injection): 16 and 12 and 11 and 28
- Scratching bouts (each well represents individual mouse) (WT mice; 10 mM subcutaneous nape injection): 5 and 20 and 15 and 16
